pIC50, pKi: −log10 of the molar value.
Assays:
[1] = target: T1, human α1D receptor (Homo sapiens, UniProt P25100); assay: radioligand binding to adrenergic receptor α1D ([3H] Prazosin)
T1 construct: expressed in transfected cells; host or cells: HEK-293
T1 sequence (P25100 1-572): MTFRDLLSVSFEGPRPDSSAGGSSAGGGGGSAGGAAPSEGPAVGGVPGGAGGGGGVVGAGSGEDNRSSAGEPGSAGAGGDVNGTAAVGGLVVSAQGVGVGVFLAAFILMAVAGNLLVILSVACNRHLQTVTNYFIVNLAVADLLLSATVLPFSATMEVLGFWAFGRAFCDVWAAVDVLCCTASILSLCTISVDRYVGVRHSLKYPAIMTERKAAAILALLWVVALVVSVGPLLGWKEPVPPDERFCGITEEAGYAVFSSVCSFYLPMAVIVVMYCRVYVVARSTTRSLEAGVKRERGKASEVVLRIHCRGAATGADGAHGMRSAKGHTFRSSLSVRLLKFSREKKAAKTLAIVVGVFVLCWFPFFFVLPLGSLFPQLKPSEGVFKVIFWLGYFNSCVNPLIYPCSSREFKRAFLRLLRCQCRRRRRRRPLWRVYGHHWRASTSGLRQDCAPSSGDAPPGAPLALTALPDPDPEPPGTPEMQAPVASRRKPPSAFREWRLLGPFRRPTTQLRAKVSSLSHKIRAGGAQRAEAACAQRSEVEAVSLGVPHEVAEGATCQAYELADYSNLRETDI
Description: 6-C. […] For this purpose sDNA of human α1D receptor is expressed in HEK-293 cells, as it was described in [T L Theroux, T A Esbenshade, R D Peavy and K P Minneman. Coupling efficiencies of human alpha 1-adrenergic receptor subtypes: titration of receptor density and responsiveness with inducible and repressible expression vectors. Mol. Pharmacol.; 50: 1376-1387, 1996]. […] Prazosin is used as positive control.

[2] = target: T2, human D2S receptor (Homo sapiens, UniProt P14416); assay: radioligand binding to dopamine receptor D2S ([3H] Spiperone); details: for Dopamine receptor D2S, % inhibition: 10 μM ligand
T2 construct: expressed in transfected cells; host or cells: CHO
Description: 7-C. […] For this purpose sDNA of human D2S receptor is expressed in CHO cells, as described in [Hayes G, Biden T J, Selbie L A and Shine J, Structural subtypes of the dopamine D2 receptor are functionally distinct. […] Mol. Endocrinol. […] Mol. Endocrinol. […] Spiperone is used as positive control.

[3] = target: T3, human H2 receptor (Homo sapiens, UniProt P25021); assay: radioligand binding to histamine receptor H2 ([125I] Aminopotentidine); details: 10 μM ligand
T3 construct: expressed in transfected cells; host or cells: CHO-K1
Description: Proc Natl Acad Sci USA. 87(5): 1658-1662, 1990]. […] Proc Natl Acad Sci USA. 87(5): 1658-1662, 1990]. […] Tiotidine is used as positive control.

[4] = target: T4, recombinant human 5-HT1A (Homo sapiens, UniProt P08908); assay: radioligand binding to serotonin receptor 5-HT1A ([3H] 8-OH-DPAT)
T4 construct: expressed in transfected cells; host or cells: CHO
T4 sequence (P08908 1-422): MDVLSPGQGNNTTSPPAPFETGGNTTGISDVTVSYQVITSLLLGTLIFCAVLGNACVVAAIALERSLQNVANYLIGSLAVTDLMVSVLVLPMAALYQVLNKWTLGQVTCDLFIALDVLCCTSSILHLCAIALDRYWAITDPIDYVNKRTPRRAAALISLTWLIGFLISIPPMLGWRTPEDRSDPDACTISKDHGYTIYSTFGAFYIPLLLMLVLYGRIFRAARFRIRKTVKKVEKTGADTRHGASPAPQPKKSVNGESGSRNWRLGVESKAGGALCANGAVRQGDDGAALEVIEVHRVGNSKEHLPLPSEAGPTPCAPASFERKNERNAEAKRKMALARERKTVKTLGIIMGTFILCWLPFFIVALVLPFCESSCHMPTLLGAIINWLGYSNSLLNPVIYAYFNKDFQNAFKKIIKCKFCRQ
Description: J Pharmacol Exp Ther. 306(1): 301-309, 2003]. […] Metergoline is used as positive control.

[5] = target: T5, human 5-HT7 receptor (Homo sapiens, UniProt P34969); assay: radioligand binding to serotonin receptor 5-HT7 ([3H] Lysergic acid diethylamide)
T5 construct: expressed in transfected cells; host or cells: CHO
Description: For this purpose sDNA of human 5-HT7 receptor is expressed in CHO cells as it was described in [Shen Y, Monsma F J Jr, Metcalf M A, Jose P A, Hamblin M W, and Sibley DR. […] J. Biol. Chem. 1993, 268, 18200-18204]. […] J. Pharmacol. Exp. Ther. 1994, 268:1403-1410]. […] Methiothepin is used as positive control.

[6] = target: T6, recombinant human 5-HT2B receptor (Homo sapiens, UniProt P41595); assay: radioligand binding to serotonin receptor 5-HT2B ([3H] Lysergic acid diethylamide)
T6 construct: expressed in transfected cells; host or cells: CHO-K1

[7] = target: T7, recombinant human 5-HT2C receptor (Homo sapiens, UniProt P28335); assay: radioligand binding to serotonin receptor 5-HT2C ([3H] Mesulergine)
T7 construct: expressed in transfected cells; host or cells: CHO-K1
T7 sequence (P28335 33-458): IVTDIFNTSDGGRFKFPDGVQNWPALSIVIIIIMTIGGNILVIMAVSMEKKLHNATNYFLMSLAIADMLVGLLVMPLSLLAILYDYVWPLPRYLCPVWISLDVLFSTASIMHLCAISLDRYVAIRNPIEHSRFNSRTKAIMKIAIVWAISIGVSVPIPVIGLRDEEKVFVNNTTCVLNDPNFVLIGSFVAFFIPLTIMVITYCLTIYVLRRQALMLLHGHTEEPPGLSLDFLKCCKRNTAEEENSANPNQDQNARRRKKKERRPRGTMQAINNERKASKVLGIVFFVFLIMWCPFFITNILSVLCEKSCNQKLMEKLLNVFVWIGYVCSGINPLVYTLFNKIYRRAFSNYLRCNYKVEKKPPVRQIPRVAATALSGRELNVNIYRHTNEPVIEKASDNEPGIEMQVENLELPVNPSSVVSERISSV
Description: J. Neurochem. 69: 1449-1458, 1997]. […] SB242084 is used as positive control.

T6 sequence (P41595 whole entry): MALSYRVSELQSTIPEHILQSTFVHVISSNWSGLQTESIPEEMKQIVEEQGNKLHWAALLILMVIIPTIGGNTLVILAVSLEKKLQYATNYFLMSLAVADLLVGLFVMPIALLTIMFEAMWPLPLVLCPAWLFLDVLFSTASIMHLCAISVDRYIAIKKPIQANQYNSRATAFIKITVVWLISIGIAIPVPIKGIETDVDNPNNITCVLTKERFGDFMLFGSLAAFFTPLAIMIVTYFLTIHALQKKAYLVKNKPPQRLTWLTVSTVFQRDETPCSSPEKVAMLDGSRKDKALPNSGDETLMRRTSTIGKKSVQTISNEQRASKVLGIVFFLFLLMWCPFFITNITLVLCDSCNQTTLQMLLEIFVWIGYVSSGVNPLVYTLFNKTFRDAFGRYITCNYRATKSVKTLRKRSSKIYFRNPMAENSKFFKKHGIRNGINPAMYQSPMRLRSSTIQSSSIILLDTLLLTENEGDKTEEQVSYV
T2 sequence (P14416 1-414 isoform P14416-2): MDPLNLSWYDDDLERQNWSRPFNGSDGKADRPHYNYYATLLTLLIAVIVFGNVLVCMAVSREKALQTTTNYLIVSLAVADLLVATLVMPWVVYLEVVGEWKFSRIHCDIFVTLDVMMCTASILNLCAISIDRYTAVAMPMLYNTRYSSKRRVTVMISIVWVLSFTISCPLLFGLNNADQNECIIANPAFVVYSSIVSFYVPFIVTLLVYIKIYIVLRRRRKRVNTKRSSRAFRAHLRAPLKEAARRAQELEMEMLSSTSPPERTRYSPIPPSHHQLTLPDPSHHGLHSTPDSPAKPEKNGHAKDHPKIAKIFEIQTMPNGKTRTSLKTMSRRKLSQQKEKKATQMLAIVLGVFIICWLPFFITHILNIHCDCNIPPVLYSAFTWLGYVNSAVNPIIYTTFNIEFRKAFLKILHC
T3 sequence (P25021 whole entry): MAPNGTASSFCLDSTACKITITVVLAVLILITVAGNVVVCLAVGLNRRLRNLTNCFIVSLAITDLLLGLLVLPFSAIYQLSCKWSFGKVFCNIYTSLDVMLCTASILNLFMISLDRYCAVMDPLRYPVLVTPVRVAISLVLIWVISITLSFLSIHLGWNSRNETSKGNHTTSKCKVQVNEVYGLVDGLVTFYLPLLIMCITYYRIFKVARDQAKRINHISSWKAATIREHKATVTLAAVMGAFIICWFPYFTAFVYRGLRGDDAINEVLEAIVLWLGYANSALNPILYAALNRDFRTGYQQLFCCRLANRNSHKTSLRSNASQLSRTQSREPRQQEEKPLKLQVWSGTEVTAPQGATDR
T5 sequence (P34969 whole entry): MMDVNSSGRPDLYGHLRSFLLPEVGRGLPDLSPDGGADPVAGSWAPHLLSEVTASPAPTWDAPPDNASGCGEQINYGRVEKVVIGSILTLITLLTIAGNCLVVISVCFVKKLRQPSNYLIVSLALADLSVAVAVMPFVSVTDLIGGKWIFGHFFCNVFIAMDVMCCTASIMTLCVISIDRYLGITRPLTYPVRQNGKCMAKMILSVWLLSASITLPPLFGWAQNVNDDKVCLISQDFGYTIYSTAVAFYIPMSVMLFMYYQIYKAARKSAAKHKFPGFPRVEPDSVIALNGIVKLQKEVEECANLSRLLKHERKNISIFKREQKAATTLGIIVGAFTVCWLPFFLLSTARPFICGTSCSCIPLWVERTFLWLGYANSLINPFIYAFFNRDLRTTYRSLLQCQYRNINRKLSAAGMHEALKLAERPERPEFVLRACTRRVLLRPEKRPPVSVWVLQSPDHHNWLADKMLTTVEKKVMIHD

## Cc1ccc2c(c1)[C@@H]1CN(C)CCC[C@@H]1N2CCc1ccc(C)nc1.Cl.Cl.Cl (relative stereo) [1.6.1(2)•3HCl]
[1]; 10 μM ligand
  α-Adrenoceptor α1D, % inhibition: 87%
[2]
  Dopamine receptor D2S, % inhibition: 31%
[3]
  Histamine receptor H2, % inhibition: 66%
[4]; 10 μM ligand
  5-HT1A % inhibition: −9%
[5]; 10 μM ligand
  5-HT7 % inhibition: 8%

## Cc1ccc2c(c1)c1c(n2CCc2ccccn2)CCN(C)C1.Cl.Cl [1.1.2(2-3)•2HCl]
[1]
  pIC50: 6.55
  pKi: 6.86
[4]; ligand concentration 1 μM
  inhibition at 1 µM: 53%
[6]
  nH 5-HT2B: 0.913
[6]; read-out: IC50 5-HT2B
  pIC50: 5.99
[6]; read-out: Ki 5-HT2B
  pKi: 6.19
[5]; ligand concentration 1 μM
  inhibition at 1 µM: 100%

## Cc1ccc2c(c1)[C@H]1CN(C)CCC[C@@H]1N2CCc1cccnc1 [1.6.2(10)•3HCl]
[1]; 10 μM ligand
  α-Adrenoceptor α1D, % inhibition: 86%
[2]
  Dopamine receptor D2S, % inhibition: 33%
[3]
  Histamine receptor H2, % inhibition: 69%
[7]; ligand concentration 1 μM
  inhibition at 1 µM: 99%

## CN1CCc2c(c3ccccc3n2Cc2ccccc2)C1 [1.9(1)•½NDSA, bis-(5-benzyl-2-methyl-2,3,4,5-tetrahydro-1H-pyrido[4,3-b]indole) naphtalene-1,5-disulfonate]
[1]
  pIC50: 5.88
  pKi: 6.18
  nH α1D: 1.05
[1]; 3 μM ligand
  α-Adrenoceptor α1D, % inhibition: 70(3 μM) %
[2]
  pIC50: 5.52
  pKi: 5.97
  nH D2S: 0.879
  Dopamine receptor D2S, % inhibition: 51%
[6]
  nH 5-HT2B: 0.552
[7]
  pIC50: 7.87
  pKi: 8.15
  nH 5-HT2C: 0.987
